Test results from US20260262643A1, “HERBICIDAL BENZOXAZINES” (FMC CORPORATION, priority 2022, published 2026).

Experiments:
green foxtail [1] = test: Test C preemergence; format: in vivo, Setaria viridis
How it was run: (§1)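 Greenhouse herbicide screen, 10-day duration. Test chemicals in solvent/surfactant blend were sprayed onto soil at sowing (pre) or onto 2–10 cm seedlings at one to two leaves (post); injury scored visually against controls, 0 no effect to 100 complete control.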

ryegrass, Italian [2] = test: Test C postemergence; format: in vivo, Lolium multiflorum; settings: 10 days, 0 to 100 scale (0 no effect, 100 complete control)
How it was run: as §1

sedge, umbrella = test: Test D flooded paddy test; format: in vivo, Cyperus difformis; settings: 250 g ai/ha, applied to paddy water, visual rating after 13 to 14 days, scale 0 to 100 (0 no effect, 100 complete control)
How it was run: (§2)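 At the 2-leaf stage, floodwater 3 cm deep received the test compound; that depth persisted throughout. Plants scored visually 13 to 14 days on, 0 (no effect) to 100 (complete control), dash indicating no result.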

barnyardgrass [3] = test: Test C postemergence; format: in vivo, Echinochloa crusgalli; settings: 10 days, 0 to 100 scale (0 no effect, 100 complete control)
How it was run: as §1

green foxtail [4] = test: Test C postemergence; format: in vivo, Setaria viridis; settings: 10 days, 0 to 100 scale (0 no effect, 100 complete control)
How it was run: as §1

pigweed, palmer [5] = test: Test C preemergence; format: in vivo, Amaranthus palmeri
How it was run: as §1

horseweed = test: Test C postemergence; format: in vivo, Erigeron canadensis; settings: 10 days, 0 to 100 scale (0 no effect, 100 complete control)
How it was run: as §1

galium = test: Test C postemergence; format: in vivo, Galium aparine; settings: 10 days, 0 to 100 scale (0 no effect, 100 complete control)
How it was run: as §1

wheat [6] = test: Test C postemergence; format: in vivo, Triticum aestivum; settings: 10 days, 0 to 100 scale (0 no effect, 100 complete control)
How it was run: as §1

rice = test: Test D flooded paddy test; format: in vivo, Oryza sativa; settings: 250 g ai/ha, applied to paddy water, visual rating after 13 to 14 days, scale 0 to 100 (0 no effect, 100 complete control)
How it was run: as §2

ragweed [7] = test: Test C preemergence; format: in vivo, Ambrosia artemisiifolia
How it was run: as §1

oat, wild [8] = test: Test C postemergence; format: in vivo, Avena fatua; settings: 10 days, 0 to 100 scale (0 no effect, 100 complete control)
How it was run: as §1

wheat [9] = test: Test C preemergence; format: in vivo, Triticum aestivum
How it was run: as §1

oat, wild [10] = test: Test C preemergence; format: in vivo, Avena fatua
How it was run: as §1

soybean [11] = test: Test C postemergence; format: in vivo, Glycine max; settings: 10 days, 0 to 100 scale (0 no effect, 100 complete control)
How it was run: as §1

corn [12] = test: Test C preemergence; format: in vivo, Zea mays
How it was run: as §1

barnyardgrass [13] = test: Test D flooded paddy test; format: in vivo, Echinochloa crus-galli; settings: 250 g ai/ha, applied to paddy water, visual rating after 13 to 14 days, scale 0 to 100 (0 no effect, 100 complete control)
How it was run: as §2

soybean [14] = test: Test C preemergence; format: in vivo, Glycine max
How it was run: as §1

ryegrass, Italian [15] = test: Test C preemergence; format: in vivo, Lolium multiflorum
How it was run: as §1

blackgrass [16] = test: Test C preemergence; format: in vivo, Alopecurus myosuroides
How it was run: as §1

pigweed, palmer [17] = test: Test C postemergence; format: in vivo, Amaranthus palmeri; settings: 10 days, 0 to 100 scale (0 no effect, 100 complete control)
How it was run: as §1

barnyardgrass [18] = test: Test C preemergence; format: in vivo, Echinochloa crusgalli
How it was run: as §1

corn [19] = test: Test C postemergence; format: in vivo, Zea mays; settings: 10 days, 0 to 100 scale (0 no effect, 100 complete control)
How it was run: as §1

blackgrass [20] = test: Test C postemergence; format: in vivo, Alopecurus myosuroides; settings: 10 days, 0 to 100 scale (0 no effect, 100 complete control)
How it was run: as §1

ragweed [21] = test: Test C postemergence; format: in vivo, Ambrosia artemisiifolia; settings: 10 days, 0 to 100 scale (0 no effect, 100 complete control)
How it was run: as §1

kochia [22] = test: Test C preemergence; format: in vivo, Bassia scoparia
How it was run: as §1

kochia [23] = test: Test C postemergence; format: in vivo, Bassia scoparia; settings: 10 days, 0 to 100 scale (0 no effect, 100 complete control)
How it was run: as §1

ducksalad = test: Test D flooded paddy test; format: in vivo, Heteranthera limosa; settings: 250 g ai/ha, applied to paddy water, visual rating after 13 to 14 days, scale 0 to 100 (0 no effect, 100 complete control)
How it was run: as §2

[24] = 500 g ai/ha, preemergence, 0 to 100 scale (0 no effect, 100 complete control)
[25] = Preemergence, 125 g ai/ha, 0 to 100 scale, 0 no effect, 100 complete control

COC[C@H]1CN(C(=O)c2cc(-n3cnc(C(C)(C)C)n3)cc3c2OCCO3)c2cccc(Cl)c2O1 [Compound 382]
Foxtail, Green plant response rating (green foxtail [1]; [24]): 100 | Plant response rating, Foxtail, Green (green foxtail [1]; [25]): 90 | Plant response rating, Ryegrass, Italian (ryegrass, Italian [2]; 500 g ai/ha, postemergence): 60 | Plant response rating, Ryegrass, Italian (ryegrass, Italian [2]; Postemergence, 125 g ai/ha): 40 | Plant response rating, Sedge, Umbrella (Flood) (sedge, umbrella): 25 | Plant response rating, Barnyardgrass (barnyardgrass [3]; 500 g ai/ha, postemergence): 50 | Plant response rating, Barnyardgrass (barnyardgrass [3]; Postemergence, 125 g ai/ha): 30 | Plant response rating, Foxtail, Green (green foxtail [4]; 500 g ai/ha, postemergence): 60 | Plant response rating, Foxtail, Green (green foxtail [4]; Postemergence, 125 g ai/ha): 20 | Pigweed, Palmer plant response rating (pigweed, palmer [5]; [24]): 100 | Plant response rating, Pigweed, Palmer (pigweed, palmer [5]; [25]): 100 | Plant response rating, Horseweed (horseweed; 500 g ai/ha, postemergence): 50 | Plant response rating, Horseweed (horseweed; Postemergence, 125 g ai/ha): 50 | Plant response rating, Galium (galium; 500 g ai/ha, postemergence): 100 | Plant response rating, Galium (galium; Postemergence, 125 g ai/ha): 100 | Plant response rating, Wheat (wheat [6]; 500 g ai/ha, postemergence): 40 | Plant response rating, Wheat (wheat [6]; Postemergence, 125 g ai/ha): 20 | Plant response rating, Rice (Flood) (rice): 15 | Ragweed plant response rating (ragweed [7]; [24]): 100 | Plant response rating, Ragweed (ragweed [7]; [25]): 60 | Plant response rating, Oat, Wild (oat, wild [8]; 500 g ai/ha, postemergence): 0 | Plant response rating, Oat, Wild (oat, wild [8]; Postemergence, 125 g ai/ha): 0 | Wheat plant response rating (wheat [9]; [24]): 40 | Plant response rating, Wheat (wheat [9]; [25]): 0 | Oat, Wild plant response rating (oat, wild [10]; [24]): 80 | Plant response rating, Oat, Wild (oat, wild [10]; [25]): 20 | Plant response rating, Soybean (soybean [11]; 500 g ai/ha, postemergence): 100 | Plant response rating, Soybean (soybean [11]; Postemergence, 125 g ai/ha): 100 | Corn plant response rating (corn [12]; [24]): 70 | Plant response rating, Corn (corn [12]; [25]): 10 | Plant response rating, Barnyardgrass (Flood) (barnyardgrass [13]): 50 | Soybean plant response rating (soybean [14]; [24]): 80 | Plant response rating, Soybean (soybean [14]; [25]): 60 | Ryegrass, Italian plant response rating (ryegrass, Italian [15]; [24]): 100 | Plant response rating, Ryegrass, Italian (ryegrass, Italian [15]; [25]): 80 | Blackgrass plant response rating (blackgrass [16]; [24]): 50 | Plant response rating, Blackgrass (blackgrass [16]; [25]): 10 | Plant response rating, Pigweed, Palmer (pigweed, palmer [17]; 500 g ai/ha, postemergence): 100 | Plant response rating, Pigweed, Palmer (pigweed, palmer [17]; Postemergence, 125 g ai/ha): 100 | Barnyardgrass plant response rating (barnyardgrass [18]; [24]): 100 | Plant response rating, Barnyardgrass (barnyardgrass [18]; [25]): 50 | Plant response rating, Corn (corn [19]; 500 g ai/ha, postemergence): 50 | Plant response rating, Corn (corn [19]; Postemergence, 125 g ai/ha): 20 | Plant response rating, Blackgrass (blackgrass [20]; 500 g ai/ha, postemergence): 40 | Plant response rating, Blackgrass (blackgrass [20]; Postemergence, 125 g ai/ha): 10 | Plant response rating, Ragweed (ragweed [21]; 500 g ai/ha, postemergence): 90 | Plant response rating, Ragweed (ragweed [21]; Postemergence, 125 g ai/ha): 90 | Kochia plant response rating (kochia [22]; [24]): 100 | Plant response rating, Kochia (kochia [22]; [25]): 80 | Plant response rating, Kochia (kochia [23]; 500 g ai/ha, postemergence): 100 | Plant response rating, Kochia (kochia [23]; Postemergence, 125 g ai/ha): 90 | Plant response rating, Ducksalad (Flood) (ducksalad): 15
